According to patent US5446130A, “Parathyroid hormone antagonists” (Mitsubishi Kasei Corporation, priority 1990, dated 1995):
Where no end group is shown, it is not given here.

T1: hPTH (1-34) (human, UniProt P01270)
T1 peptide: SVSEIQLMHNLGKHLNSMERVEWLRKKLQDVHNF

B1: Compound No. 21 (peptide)
peptide: Ac-IQLMHDKGKSIQDLRRRFFLHHLIAEIHTA-NH2
B2: Compound No. 20 (peptide)
peptide: IQLMHDKGKSIQDLRRRFFLHKLIAEIHTA-NH2
B3: Compound No. 19 (peptide)
peptide: IQLMHDKGKSIQDLRRRFFLRHLIAEIHTA-NH2
B4: Compound No. 14 (peptide)
peptide: IQXMHDKGKSIQDLRRRFFLHHLIAEIHTA
modifications: Nle (norleucine) as third residue (EEE); C-terminal amide (Ala-NH2)
B5: Compound No. 10 (peptide)
peptide: XLMHDKGKSIQDLRRRFFLHHLIAEIHTA
modifications: N-terminal myristoyl (Myr-Gln); C-terminal amide (Ala-NH2)
B6: Compound No. 18 (peptide)
peptide: IQLMHALGKSIQDLRRRFFLHHLIAEIHTA-NH2
B7: Compound No. 17 (peptide)
peptide: IQLMHAKGKSIQDLRRRFFLHHLIAEIHTA-NH2

Experiments:
[1] = system: output of cAMP produced by 5×10^-9 M hPTH (1-34) in cultured mouse osteoblast MC3T3-E1; experiment: Determination of PTH antagonism: inhibition of cAMP output induced by hPTH (1-34) in cultured mouse osteoblast MC3T3-E1; assay type: cell-based
Experimental: PTH antagonism of the PTHrP derivatives (I) of the present invention was determined on the basis of the output of cAMP, using cultured mouse osteoblast MC3T3-E1.
To a multiwell-culture plate of 12-well were inoculated 1×10^5 cells/well of the cultured cells, and the plate was incubated at 37° C. under 95% air-5% CO2 atmosphere for 3 days after addition of α-modified MEM containing 10% semi-fetal bovine serum as a medium. Then, the medium was exchanged with α-modified MEM containing 1% bovine serum albumin and the cultured cells were incubated for 6 hours. The medium was replaced by α-modified MEM containing various concentrations of the compound of the present invention, 5×10^-9 M hPTH (1-34), 1% bovine serum albumin and 1 mM isobutylmethylxanthin, and the mixture was incubated for 1 hour. The medium was separated from the cells, and the medium was used as a sample for assaying cAMP. The cells were shaken with 90% n-propyl alcohol to extract cAMP according to Yamaguchi et al., J. Biol. Chem., 262, 7711-7718 (1987) for preparing another sample.
Assay of cAMP was performed using a commercially available cAMP-radioimmunoassay kit. […] Compound numbers in the tables correspond to those in Table 2.

hPTH (1-34) = target: T1, hPTH (1-34); experiment: cell-based or functional assay
[2] = Table 4, 50% inhibition of cAMP output by 5×10^-9 M hPTH (1-34), ratio to control Compound No. 15 = 1

Row | Molecule | IC50 Ratio [1, 2] | IC50 Ratio: 50% inhibition of cAMP output, MC3T3-E1 mouse osteoblasts (hPTH (1-34)) | other results
1 | CC[C@H](C)[C@H](NC(=O)[C@H](CC(C)C)NC(=O)[C@H](Cc1c[nH]cn1)NC(=O)[C@H](Cc1c[nH]cn1)NC(=O)[C@H](CC(C)C)NC(=O)[C@H](Cc1ccccc1)NC(=O)[C@H](Cc1ccccc1)NC(=O)[C@H](CCCNC(=N)N)NC(=O)[C@H](CCCNC(=N)N)NC(=O)[C@H](CCCNC(=N)N)NC(=O)[C@H](CC(C)C)NC(=O)[C@H](CC(=O)O)NC(=O)[C@H](CCC(N)=O)NC(=O)[C@@H](NC(=O)[C@H](CO)NC(=O)[C@H](CCCCN)NC(=O)CNC(=O)[C@H](CCCCN)NC(=O)[C@H](CC(=O)O)NC(=O)[C@H](Cc1c[nH]cn1)NC(=O)[C@H](CCSC)NC(=O)[C@H](CC(C)C)NC(=O)[C@H](CCC(N)=O)NC(=O)[C@@H](N)CC(C)C)[C@@H](C)CC)C(=O)N[C@@H](C)C(=O)N[C@@H](CCC(=O)O)C(=O)N[C@H](C(=O)N[C@@H](Cc1c[nH]cn1)C(=O)N[C@H](C(=O)N[C@@H](C)C(N)=O)[C@@H](C)O)[C@@H](C)CC [Compound No. 9] | 1.02 |  | 
2 | CCCCCCCCCCCCCC(=O)N[C@@H](CCC(N)=O)C(=O)N[C@@H](CC(C)C)C(=O)N[C@@H](CCSC)C(=O)N[C@@H](Cc1c[nH]cn1)C(=O)N[C@@H](CC(=O)O)C(=O)N[C@@H](CCCCN)C(=O)NCC(=O)N[C@@H](CCCCN)C(=O)N[C@@H](CO)C(=O)N[C@H](C(=O)N[C@@H](CCC(N)=O)C(=O)N[C@@H](CC(=O)O)C(=O)N[C@@H](CC(C)C)C(=O)N[C@@H](CCCNC(=N)N)C(=O)N[C@@H](CCCNC(=N)N)C(=O)N[C@@H](CCCNC(=N)N)C(=O)N[C@@H](Cc1ccccc1)C(=O)N[C@@H](Cc1ccccc1)C(=O)N[C@@H](CC(C)C)C(=O)N[C@@H](Cc1c[nH]cn1)C(=O)N[C@@H](Cc1c[nH]cn1)C(=O)N[C@@H](CC(C)C)C(=O)N[C@H](C(=O)N[C@@H](C)C(=O)N[C@@H](CCC(=O)O)C(=O)N[C@H](C(=O)N[C@@H](Cc1c[nH]cn1)C(=O)N[C@H](C(=O)N[C@@H](C)C(N)=O)[C@@H](C)O)[C@@H](C)CC)[C@@H](C)CC)[C@@H](C)CC [Compound No. 10] | 2.24 |  | 
3 | CCCC[C@H](NC(=O)[C@H](CCC(N)=O)NC(=O)[C@@H](N)[C@@H](C)CC)C(=O)N[C@@H](CCSC)C(=O)N[C@@H](Cc1c[nH]cn1)C(=O)N[C@@H](CC(=O)O)C(=O)N[C@@H](CCCCN)C(=O)NCC(=O)N[C@@H](CCCCN)C(=O)N[C@@H](CO)C(=O)N[C@H](C(=O)N[C@@H](CCC(N)=O)C(=O)N[C@@H](CC(=O)O)C(=O)N[C@@H](CC(C)C)C(=O)N[C@@H](CCCNC(=N)N)C(=O)N[C@@H](CCCNC(=N)N)C(=O)N[C@@H](CCCNC(=N)N)C(=O)N[C@@H](Cc1ccccc1)C(=O)N[C@@H](Cc1ccccc1)C(=O)N[C@@H](CC(C)C)C(=O)N[C@@H](Cc1c[nH]cn1)C(=O)N[C@@H](Cc1c[nH]cn1)C(=O)N[C@@H](CC(C)C)C(=O)N[C@H](C(=O)N[C@@H](C)C(=O)N[C@@H](CCC(=O)O)C(=O)N[C@H](C(=O)N[C@@H](Cc1c[nH]cn1)C(=O)N[C@H](C(=O)N[C@@H](C)C(N)=O)[C@@H](C)O)[C@@H](C)CC)[C@@H](C)CC)[C@@H](C)CC [Compound No. 14] | 0.922 |  | 
4 | CC[C@H](C)[C@H](N)C(=O)N[C@@H](CCC(N)=O)C(=O)N[C@@H](CC(C)C)C(=O)N[C@@H](CCSC)C(=O)N[C@@H](Cc1c[nH]cn1)C(=O)N[C@@H](C)C(=O)N[C@@H](CCCCN)C(=O)NCC(=O)N[C@@H](CCCCN)C(=O)N[C@@H](CO)C(=O)N[C@H](C(=O)N[C@@H](CCC(N)=O)C(=O)N[C@@H](CC(=O)O)C(=O)N[C@@H](CC(C)C)C(=O)N[C@@H](CCCNC(=N)N)C(=O)N[C@@H](CCCNC(=N)N)C(=O)N[C@@H](CCCNC(=N)N)C(=O)N[C@@H](Cc1ccccc1)C(=O)N[C@@H](Cc1ccccc1)C(=O)N[C@@H](CC(C)C)C(=O)N[C@@H](Cc1c[nH]cn1)C(=O)N[C@@H](Cc1c[nH]cn1)C(=O)N[C@@H](CC(C)C)C(=O)N[C@H](C(=O)N[C@@H](C)C(=O)N[C@@H](CCC(=O)O)C(=O)N[C@H](C(=O)N[C@@H](Cc1c[nH]cn1)C(=O)N[C@H](C(=O)N[C@@H](C)C(N)=O)[C@@H](C)O)[C@@H](C)CC)[C@@H](C)CC)[C@@H](C)CC [Compound No. 17] | 1.17 |  | 
5 | CC[C@H](C)[C@H](N)C(=O)N[C@@H](CCC(N)=O)C(=O)N[C@@H](CC(C)C)C(=O)N[C@@H](CCSC)C(=O)N[C@@H](Cc1c[nH]cn1)C(=O)N[C@@H](C)C(=O)N[C@@H](CC(C)C)C(=O)NCC(=O)N[C@@H](CCCCN)C(=O)N[C@@H](CO)C(=O)N[C@H](C(=O)N[C@@H](CCC(N)=O)C(=O)N[C@@H](CC(=O)O)C(=O)N[C@@H](CC(C)C)C(=O)N[C@@H](CCCNC(=N)N)C(=O)N[C@@H](CCCNC(=N)N)C(=O)N[C@@H](CCCNC(=N)N)C(=O)N[C@@H](Cc1ccccc1)C(=O)N[C@@H](Cc1ccccc1)C(=O)N[C@@H](CC(C)C)C(=O)N[C@@H](Cc1c[nH]cn1)C(=O)N[C@@H](Cc1c[nH]cn1)C(=O)N[C@@H](CC(C)C)C(=O)N[C@H](C(=O)N[C@@H](C)C(=O)N[C@@H](CCC(=O)O)C(=O)N[C@H](C(=O)N[C@@H](Cc1c[nH]cn1)C(=O)N[C@H](C(=O)N[C@@H](C)C(N)=O)[C@@H](C)O)[C@@H](C)CC)[C@@H](C)CC)[C@@H](C)CC [Compound No. 18] | 1.97 |  | 
6 | CC[C@H](C)[C@H](NC(C)=O)C(=O)N[C@@H](CCC(N)=O)C(=O)N[C@@H](CC(C)C)C(=O)N[C@@H](CCSC)C(=O)N[C@@H](Cc1c[nH]cn1)C(=O)N[C@@H](CC(=O)O)C(=O)N[C@@H](CCCCN)C(=O)NCC(=O)N[C@@H](CCCCN)C(=O)N[C@@H](CO)C(=O)N[C@H](C(=O)N[C@@H](CCC(N)=O)C(=O)N[C@@H](CC(=O)O)C(=O)N[C@@H](CC(C)C)C(=O)N[C@@H](CCCNC(=N)N)C(=O)N[C@@H](CCCNC(=N)N)C(=O)N[C@@H](CCCNC(=N)N)C(=O)N[C@@H](Cc1ccccc1)C(=O)N[C@@H](Cc1ccccc1)C(=O)N[C@@H](CC(C)C)C(=O)N[C@@H](Cc1c[nH]cn1)C(=O)N[C@@H](Cc1c[nH]cn1)C(=O)N[C@@H](CC(C)C)C(=O)N[C@H](C(=O)N[C@@H](C)C(=O)N[C@@H](CCC(=O)O)C(=O)N[C@H](C(=O)N[C@@H](Cc1c[nH]cn1)C(=O)N[C@H](C(=O)N[C@@H](C)C(N)=O)[C@@H](C)O)[C@@H](C)CC)[C@@H](C)CC)[C@@H](C)CC [Compound No. 21] | 0.934 |  | 
7 | CCCCCCCCCCCCCC(=O)N[C@H](C(=O)N[C@@H](CCC(N)=O)C(=O)N[C@@H](CC(C)C)C(=O)N[C@@H](CCSC)C(=O)N[C@@H](Cc1c[nH]cn1)C(=O)N[C@@H](CC(=O)O)C(=O)N[C@@H](CCCCN)C(=O)NCC(=O)N[C@@H](CCCCN)C(=O)N[C@@H](CO)C(=O)N[C@H](C(=O)N[C@@H](CCC(N)=O)C(=O)N[C@@H](CC(=O)O)C(=O)N[C@@H](CC(C)C)C(=O)N[C@@H](CCCNC(=N)N)C(=O)N[C@@H](CCCNC(=N)N)C(=O)N[C@@H](CCCNC(=N)N)C(=O)N[C@@H](Cc1ccccc1)C(=O)N[C@@H](Cc1ccccc1)C(=O)N[C@@H](CC(C)C)C(=O)N[C@@H](Cc1c[nH]cn1)C(=O)N[C@@H](Cc1c[nH]cn1)C(=O)N[C@@H](CC(C)C)C(=O)N[C@H](C(=O)N[C@@H](C)C(=O)N[C@@H](CCC(=O)O)C(=O)N[C@H](C(=O)N[C@@H](Cc1c[nH]cn1)C(=O)N[C@H](C(=O)N[C@@H](C)C(N)=O)[C@@H](C)O)[C@@H](C)CC)[C@@H](C)CC)[C@@H](C)CC)[C@@H](C)CC [Compound No. 22] | 0.765 |  | 
8 | IQLMHDKGKSIQDLRRRFFLHKLIAEIHTA-NH2 [Compound No. 20] | 1.01 |  | 
9 | IQLMHDKGKSIQDLRRRFFLRHLIAEIHTA-NH2 [Compound No. 19] | 0.934 |  | 
10 | [Leu^11,D-Trp^12 ]-hPTHrP(7-34)-NH2 [(Leu11,D--Trp12)--hPTHrP(7-34)--NH2, reference compound] | 3.91 |  | 
11 | [Tyr^34 ]-hPTH (3-34)-NH2 [(Tyr34)--hPTH(3-34)--NH2, reference compound] |  |  | IC50 Ratio ([1]; Table 3, 50% inhibition of cAMP output by 5×10^-9 M hPTH (1-34), ratio to control [Tyr34]-hPTH (3-34)-NH2 = 1): 1
12 | B1 |  | 0.934 ratio of IC50 to that of Compound No. 15 | 
13 | B2 |  | 1.01 ratio of IC50 to that of Compound No. 15 | 
14 | B3 |  | 0.934 ratio of IC50 to that of Compound No. 15 | 
15 | B4 |  | 0.922 ratio of IC50 to that of Compound No. 15 | 
16 | B5 |  | 2.24 ratio of IC50 to that of Compound No. 15 | 
17 | B6 |  | 1.97 ratio of IC50 to that of Compound No. 15 | 
18 | B7 |  | 1.17 ratio of IC50 to that of Compound No. 15 | 
